In the assay the target is T1, Tyrosine-protein phosphatase non-receptor type 11 (Homo sapiens, UniProt Q06124).
T1 sequence (Q06124 whole entry): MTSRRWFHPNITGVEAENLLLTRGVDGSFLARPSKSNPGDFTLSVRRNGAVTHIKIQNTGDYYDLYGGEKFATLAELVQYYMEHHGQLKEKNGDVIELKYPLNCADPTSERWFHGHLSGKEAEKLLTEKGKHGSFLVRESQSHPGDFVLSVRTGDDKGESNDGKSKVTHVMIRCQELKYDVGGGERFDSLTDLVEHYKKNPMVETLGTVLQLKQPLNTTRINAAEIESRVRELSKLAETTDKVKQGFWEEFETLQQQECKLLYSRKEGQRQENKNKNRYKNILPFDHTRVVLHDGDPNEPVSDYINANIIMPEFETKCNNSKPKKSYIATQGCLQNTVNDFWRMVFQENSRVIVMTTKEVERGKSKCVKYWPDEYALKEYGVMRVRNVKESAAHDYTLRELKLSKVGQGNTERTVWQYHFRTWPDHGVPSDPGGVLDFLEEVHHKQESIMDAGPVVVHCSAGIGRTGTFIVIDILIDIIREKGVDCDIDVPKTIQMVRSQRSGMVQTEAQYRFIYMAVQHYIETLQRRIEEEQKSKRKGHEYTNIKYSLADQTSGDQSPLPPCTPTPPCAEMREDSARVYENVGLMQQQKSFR
Nature of the assay: SHP2 Biochemical Assay. The procedure:
SHP2 activity was monitored by measuring the conversion of the surrogate substrate 6,8-difluoromethylumbelliferyl phosphate (DiFMUP) to the fluorescent product, 6,8-difluoromethylumbelliferone (DiFMU).SHP2 was pre-incubated with test compounds and the activating peptide pIRS1 (H2N-LN(pY)IDLDLV-(PEG)8-LST(pY)ASINFQK-amide) for 30 min, prior to addition of the 6,8-difluoromethylumbelliferyl phosphate (DiFMUP), (Thermo Fisher D6567). Final assay concentrations were 10 pM SHP2, […] pIRS1 peptide, 50 μM DiFMUP, 25 mM Bis-Tris propane, pH 7.0, 150 mM NaCl, 0.05% (v/v) Tween-20, 0.5 mM TCEP and 5% (v/v) DMSO. Rates of reaction were then measured over 30 min by monitoring fluorescence on a BMG Pherastar reader at excitation 360 nm/emission 450 nm. IC50 values were calculated in singlicate from the normalized dose-response plots using four parameter logistic curve fit. The Experiment for each compound was carried out in one time or multiple times, and the IC50 values were shown as a single value (for a compound measured in a single experiment) or an average value (for a compound measured in multiple experiments).

Structures are written as SMILES.

The IC50 is the concentration at which inhibition is half-maximal. A higher IC50 goes with weaker potency. The compound `Cn1c(N2[C@H]3CC[C@@H]2[C@H](N)C3)nc2[nH]cc(-c3ccc4ncsc4c3Cl)c2c1=O` [US12037345, Example 101] yielded an IC50 of 1.5 nM.

Values taken from BindingDB's records for patent US12037345 (Taiho Pharmaceutical, 2024).
